Measured values: US8642609B2, “Modulators of ATP-binding cassette transporters” (Vertex Pharmaceuticals Incorporated, priority 2003, dated 2014)
pEC50: −log10 of the molar value.

Target: T1, ΔF508-CFTR (Homo sapiens, UniProt P13569, DEL508-508)
T1 construct: expressed in transfected cells
Assay: Membrane potential optical assay (FRET/VIPR), identification of correction compounds
Type: cell-based
Settings: for Emax: relative efficacy
Method in brief: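 NIH3T3 cells stably expressing ΔF508-CFTR incubated 16 hrs at 37° C in serum-free medium with test compound; 27° C incubation as positive control. CFTR then activated with 10 μM forskolin plus 20 μM genistein in Cl^−-free medium; depolarization read by DiSBAC2(3)/CC2-DMPE FRET on VIPR.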

T1 sequence (P13569 with tags, fused parts or gaps DEL508-508): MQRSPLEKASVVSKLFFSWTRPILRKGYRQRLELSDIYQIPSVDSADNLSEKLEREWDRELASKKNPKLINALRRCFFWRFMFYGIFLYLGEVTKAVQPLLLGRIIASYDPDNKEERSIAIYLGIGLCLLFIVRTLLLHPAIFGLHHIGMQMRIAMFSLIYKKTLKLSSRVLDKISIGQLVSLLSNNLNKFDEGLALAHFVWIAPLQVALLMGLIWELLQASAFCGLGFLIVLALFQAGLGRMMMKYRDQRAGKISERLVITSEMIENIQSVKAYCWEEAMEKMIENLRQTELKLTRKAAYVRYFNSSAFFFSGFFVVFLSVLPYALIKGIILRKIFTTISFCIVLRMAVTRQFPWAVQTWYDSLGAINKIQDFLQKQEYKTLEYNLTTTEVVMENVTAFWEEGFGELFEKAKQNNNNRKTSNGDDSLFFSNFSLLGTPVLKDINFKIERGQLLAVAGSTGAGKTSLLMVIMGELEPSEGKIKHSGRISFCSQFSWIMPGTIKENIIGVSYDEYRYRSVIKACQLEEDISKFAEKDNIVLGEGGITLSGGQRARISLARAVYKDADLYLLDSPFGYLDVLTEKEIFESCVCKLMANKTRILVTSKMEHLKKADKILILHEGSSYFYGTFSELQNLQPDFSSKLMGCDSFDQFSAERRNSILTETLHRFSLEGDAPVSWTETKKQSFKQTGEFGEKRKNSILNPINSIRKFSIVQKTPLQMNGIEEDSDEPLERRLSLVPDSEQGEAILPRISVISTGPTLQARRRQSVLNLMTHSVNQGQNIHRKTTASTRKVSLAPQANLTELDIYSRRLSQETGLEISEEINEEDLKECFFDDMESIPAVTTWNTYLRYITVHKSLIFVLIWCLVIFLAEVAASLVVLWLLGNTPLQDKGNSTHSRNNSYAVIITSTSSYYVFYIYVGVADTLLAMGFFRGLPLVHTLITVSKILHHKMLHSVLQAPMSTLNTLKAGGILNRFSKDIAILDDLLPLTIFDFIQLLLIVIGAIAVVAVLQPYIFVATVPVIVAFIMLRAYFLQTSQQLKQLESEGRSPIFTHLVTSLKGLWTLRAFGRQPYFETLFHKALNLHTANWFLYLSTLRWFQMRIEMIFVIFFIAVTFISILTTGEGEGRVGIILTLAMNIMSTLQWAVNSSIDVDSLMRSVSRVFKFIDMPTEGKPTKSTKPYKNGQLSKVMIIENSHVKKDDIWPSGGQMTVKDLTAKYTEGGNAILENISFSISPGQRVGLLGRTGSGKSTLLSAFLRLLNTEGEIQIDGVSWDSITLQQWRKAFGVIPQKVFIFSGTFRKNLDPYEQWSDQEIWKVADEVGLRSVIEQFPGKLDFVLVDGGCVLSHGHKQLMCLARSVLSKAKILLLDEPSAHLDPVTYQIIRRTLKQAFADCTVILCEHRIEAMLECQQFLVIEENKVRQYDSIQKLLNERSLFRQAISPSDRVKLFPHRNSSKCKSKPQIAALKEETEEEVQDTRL

Row | Structure (SMILES) | pEC50 | Emax [%]
1 | COc1ccc(S(=O)(=O)N2CCN(C(C)c3ncc4ccccc4n3)CC2)cc1 (centres unmarked) [compound 312] | 4.22 to 4.60 | 25 to 100
2 | CC(c1ncc2ccccc2n1)N1CCN(S(=O)(=O)c2ccc(Br)cc2)CC1 (centres unmarked) [compound 313] | 4.22 to 4.60 | 25 to 100
3 | COc1ccc(S(=O)(=O)N2CCC(N(C)C(C)c3nc4ccccc4c(=O)n3C)CC2)cc1 (centres unmarked) [compound 314] | 4.22 to 4.60 | 25 to 100
4 | CC(c1nc2ccccc2c(=O)n1C)N(C)C1CCN(S(=O)(=O)c2ccc(Cl)cc2)CC1 (centres unmarked) [compound 315] | 4.22 to 4.60 | 25 to 100
5 | COc1ccc(S(=O)(=O)N2CCN(C(C)c3nc(N4CC(C)CC(C)C4)c4ccccc4n3)CC2)cc1 (centres unmarked) [compound 316] | 4.22 to 4.60 | 25 to 100
6 | COc1ccc(S(=O)(=O)N2CCN(C(C)c3nc(N4CCC(N5CCCCC5)CC4)c4ccccc4n3)CC2)cc1 (centres unmarked) [compound 317] | 4.22 to 4.60 | < 25
7 | COc1ccc(S(=O)(=O)N2CCN(C(C)c3nc(N4CC[C@H](O)C4)c4ccccc4n3)CC2)cc1 (some centres unmarked) [compound 318] | 4.22 to 4.60 | 25 to 100
8 | COc1ccc(S(=O)(=O)N2CCN(C(C)c3nc(N4CCC5(CC4)OCCO5)c4ccccc4n3)CC2)cc1 (centres unmarked) [compound 323] | 4.60 to 5.00 | 25 to 100
9 | COc1ccc(S(=O)(=O)N2CCN(C(C)c3nc(N4CCC[C@@H]4C(=O)O)c4ccccc4n3)CC2)cc1 (some centres unmarked) [compound 324] | 4.22 to 4.60 | < 25
10 | COc1ccc(S(=O)(=O)N2CCN(C(C)c3nc(N4CCC5(CC4)OCCCO5)c4ccccc4n3)CC2)cc1 (centres unmarked) [compound 328] | 4.60 to 5.00 | > 100
11 | CC(c1nc2ccccc2c(=O)n1C)N1CCN(S(=O)(=O)c2ccc(CC#N)cc2)CC1 (centres unmarked) [compound 330] | 4.22 to 4.60 | 25 to 100
12 | COc1ccc(S(=O)(=O)N2CCN(C(C)c3nc4ccccc4c(=O)n3CC(C)(C)C)CC2)cc1 (centres unmarked) [compound 332] | 4.22 to 4.60 | 25 to 100
13 | COc1ccc(S(=O)(=O)N2CCN(C(C)c3nc(N4CCCC4)c4ccccc4n3)CC2)cc1 (centres unmarked) [compound 333] | 4.60 to 5.00 | 25 to 100
14 | CCC(c1nc2ccccc2c(=O)[nH]1)N1CCN(S(=O)(=O)c2ccc(OC)cc2)CC1 (centres unmarked) [compound 334] | 4.22 to 4.60 | 25 to 100
15 | CCCC(c1nc2ccccc2c(=O)[nH]1)N1CCN(S(=O)(=O)c2ccc(OC)cc2)CC1 (centres unmarked) [compound 335] | 4.60 to 5.00 | 25 to 100
16 | CCC(c1nc2ccccc2c(=O)n1C)N1CCN(S(=O)(=O)c2ccc(OC)cc2)CC1 (centres unmarked) [compound 337] | 4.60 to 5.00 | > 100
17 | COc1ccc(S(=O)(=O)N2CCN(C(C)c3nc(OC4CCC(O)CC4)c4ccccc4n3)CC2)cc1 (centres unmarked) [compound 343] | 4.22 to 4.60 | 25 to 100
18 | COc1ccc(S(=O)(=O)N2CCN(C(C)c3nc(N4CCCC(CO)C4)c4ccccc4n3)CC2)cc1 (centres unmarked) [compound 344] | 4.60 to 5.00 | 25 to 100
19 | COc1ccc(S(=O)(=O)N2CCN(C(C)c3nc(N4CCN(C)CC4)c4ccccc4n3)CC2)cc1 (centres unmarked) [compound 345] | 4.22 to 4.60 | 25 to 100

Row | Structure (SMILES) | pEC50 | Emax [%]
20 | COc1ccc(S(=O)(=O)N2CCN(C(C)c3nc(N4CCC(O)CC4)c4ccccc4n3)CC2)cc1 (centres unmarked) [compound 346] | 4.22 to 4.60 | 25 to 100
21 | COc1ccc(S(=O)(=O)N2CCN(C(C)c3nc(N4CCC(CO)CC4)c4ccccc4n3)CC2)cc1 (centres unmarked) [compound 347] | 4.22 to 4.60 | 25 to 100
22 | CCOC(=O)c1cnc(C(C)N2CCN(S(=O)(=O)c3ccc(OC)cc3)CC2)[nH]c1=O (centres unmarked) [compound 349] | 4.22 to 4.60 | 25 to 100
23 | CSc1ccc(S(=O)(=O)N2CCN(C(C)c3nc4ccccc4c(=O)n3C)CC2)cc1 (centres unmarked) [compound 350] | 4.22 to 4.60 | < 25
24 | CCSc1ccc(S(=O)(=O)N2CCN(C(C)c3nc4ccccc4c(=O)n3C)CC2)cc1 (centres unmarked) [compound 351] | 4.22 to 4.60 | < 25
25 | C#Cc1ccc(S(=O)(=O)N2CCN(C(C)c3nc4ccccc4c(=O)n3C)CC2)cc1 (centres unmarked) [compound 354] | 4.60 to 5.00 | 25 to 100
26 | COc1ccc(S(=O)(=O)N2CCN(C(C)c3ncc(C(=O)O)c(N4CCCCC4)n3)CC2)cc1 (centres unmarked) [compound 355] | 4.22 to 4.60 | < 25
27 | COc1ccc(S(=O)(=O)N2CCN(C(C)c3ncc(C(N)=O)c(N4CCCCC4)n3)CC2)cc1 (centres unmarked) [compound 356] | 4.22 to 4.60 | 25 to 100
28 | CNC(=O)c1cnc(C(C)N2CCN(S(=O)(=O)c3ccc(OC)cc3)CC2)nc1N1CCCCC1 (centres unmarked) [compound 357] | 4.22 to 4.60 | 25 to 100
29 | COc1ccc(S(=O)(=O)N2CCN(C(C)c3ncc(C(=O)N(C)C)c(N4CCCCC4)n3)CC2)cc1 (centres unmarked) [compound 358] | 4.22 to 4.60 | 25 to 100
30 | COc1ccc(S(=O)(=O)N2CCN(C(C)c3ncc(CO)c(N4CCCCC4)n3)CC2)cc1 (centres unmarked) [compound 359] | 4.22 to 4.60 | 25 to 100
31 | COc1ccc(S(=O)(=O)N2CCN(C(C)c3nccc(N4CCCCC4)n3)CC2)cc1 (centres unmarked) [compound 360] | 4.22 to 4.60 | 25 to 100
32 | COc1ccc(S(=O)(=O)N2CCN(C(C)c3nc(N4CCC(CCO)CC4)c4ccccc4n3)CC2)cc1 (centres unmarked) [compound 363] | 4.60 to 5.00 | > 100
33 | COc1ccc(S(=O)(=O)N2CCN(C(C)c3nc(N4CCC(C(N)=O)CC4)c4ccccc4n3)CC2)cc1 (centres unmarked) [compound 364] | 4.22 to 4.60 | 25 to 100
34 | CCCC1CCN(c2nc(C(C)N3CCN(S(=O)(=O)c4ccc(OC)cc4)CC3)nc3ccccc23)CC1 (centres unmarked) [compound 365] | > 5.00 | > 100
35 | COc1ccc(S(=O)(=O)N2CCN(C(C)c3nc(Nc4ccccc4)c4ccccc4n3)CC2)cc1 (centres unmarked) [compound 366] | > 5.00 | 25 to 100
36 | COc1ccc(S(=O)(=O)N2CCN(C(C)c3nc(NCc4ccccc4)c4ccccc4n3)CC2)cc1 (centres unmarked) [compound 367] | > 5.00 | 25 to 100
37 | COc1ccc(S(=O)(=O)N2CCN(C(C)c3nc(N(C)Cc4ccccc4)c4ccccc4n3)CC2)cc1 (centres unmarked) [compound 368] | > 5.00 | > 100

Next, values leading:

Row | pEC50 | Emax [%] | Structure (SMILES)
38 | > 5.00 | 25 to 100 | CC(Nc1ccc(NS(=O)(=O)c2ccc(Cl)cc2)cc1)c1nc2ccccc2c(=O)n1C (centres unmarked) [compound 308]
39 | > 5.00 | 25 to 100 | CC(Nc1ccc(NS(=O)(=O)c2ccc(Br)cc2)cc1)c1nc2ccccc2c(=O)n1C (centres unmarked) [compound 309]
40 | > 5.00 | 25 to 100 | COc1ccc(S(=O)(=O)N2CCN(C(C)c3nc(C(C)C)c4ccccc4n3)CC2)cc1 (centres unmarked) [compound 310]
41 | > 5.00 | > 100 | COc1ccc(S(=O)(=O)N2CCN(C(C)c3nc(OC(C)(C)C)c4ccccc4n3)CC2)cc1 (centres unmarked) [compound 311]
42 | > 5.00 | 25 to 100 | COc1ccc(S(=O)(=O)N2CCN(C(C)c3nc(N4CCCCCC4)c4ccccc4n3)CC2)cc1 (centres unmarked) [compound 319]
43 | > 5.00 | > 100 | COc1ccc(S(=O)(=O)N2CCN(C(C)c3nc(N4CCC(C)CC4)c4ccccc4n3)CC2)cc1 (centres unmarked) [compound 320]
44 | > 5.00 | > 100 | COc1ccc(S(=O)(=O)N2CCN(C(C)c3nc(N4CCSCC4)c4ccccc4n3)CC2)cc1 (centres unmarked) [compound 321]
45 | > 5.00 | > 100 | CCOC(=O)C1CCN(c2nc(C(C)N3CCN(S(=O)(=O)c4ccc(OC)cc4)CC3)nc3ccccc23)CC1 (centres unmarked) [compound 322]
46 | > 5.00 | > 100 | COc1ccc(S(=O)(=O)N2CCN(C(C)c3nc(N4CCCC4C)c4ccccc4n3)CC2)cc1 (centres unmarked) [compound 325]
47 | > 5.00 | 25 to 100 | COc1ccc(S(=O)(=O)N2CCN(C(C)c3nc(N4CCCCC4C)c4ccccc4n3)CC2)cc1 (centres unmarked) [compound 326]
48 | > 5.00 | > 100 | COc1ccc(S(=O)(=O)N2CCN(C(C)c3nc(N4CCC5CCCCC5C4)c4ccccc4n3)CC2)cc1 (centres unmarked) [compound 327]
49 | > 5.00 | 25 to 100 | CCc1ccc(S(=O)(=O)N2CCN(C(C)c3nc4ccccc4c(=O)n3C)CC2)cc1 (centres unmarked) [compound 329]
50 | > 5.00 | > 100 | COc1ccc(S(=O)(=O)N2CCN(C(C)c3nc4ccccc4c(=O)n3CC(C)C)CC2)cc1 (centres unmarked) [compound 331]
51 | > 5.00 | > 100 | CCC(c1nc(N2CCCCC2)c2ccccc2n1)N1CCN(S(=O)(=O)c2ccc(OC)cc2)CC1 (centres unmarked) [compound 336]
52 | > 5.00 | > 100 | CCC(c1nc2ccccc2c(=O)n1CC)N1CCN(S(=O)(=O)c2ccc(OC)cc2)CC1 (centres unmarked) [compound 338]
53 | > 5.00 | > 100 | CCCC(c1nc(N2CCCCC2)c2ccccc2n1)N1CCN(S(=O)(=O)c2ccc(OC)cc2)CC1 (centres unmarked) [compound 339]
54 | > 5.00 | > 100 | CCCC(c1nc2ccccc2c(=O)n1C)N1CCN(S(=O)(=O)c2ccc(OC)cc2)CC1 (centres unmarked) [compound 340]
55 | > 5.00 | > 100 | CCCC(c1nc2ccccc2c(=O)n1CC)N1CCN(S(=O)(=O)c2ccc(OC)cc2)CC1 (centres unmarked) [compound 341]
56 | > 5.00 | 25 to 100 | CCCn1c(C(CC)N2CCN(S(=O)(=O)c3ccc(OC)cc3)CC2)nc2ccccc2c1=O (centres unmarked) [compound 342]
57 | > 5.00 | > 100 | COc1ccc(S(=O)(=O)N2CCN(C(C)c3nc(OC4CCC(C)C(C)C4)c4ccccc4n3)CC2)cc1 (centres unmarked) [compound 348]
58 | > 5.00 | 25 to 100 | CC(c1nc2ccccc2c(=O)n1C)N1CCN(S(=O)(=O)c2ccc(SC(F)(F)F)cc2)CC1 (centres unmarked) [compound 352]
59 | > 5.00 | 25 to 100 | CCOC(=O)c1cnc(C(C)N2CCN(S(=O)(=O)c3ccc(OC)cc3)CC2)nc1N1CCCCC1 (centres unmarked) [compound 353]
60 | > 5.00 | > 100 | COc1ccc(S(=O)(=O)N2CCN(C(C)c3nc(N4CC5CCC4C5)c4ccccc4n3)CC2)cc1 (centres unmarked) [compound 361]
61 | > 5.00 | > 100 | CCOC(=O)c1cnc(C(C)N2CCN(S(=O)(=O)c3ccc(OC)cc3)CC2)nc1OC1CCCC1 (centres unmarked) [compound 362]
